Data taken from patent US11191743B2, “Modulators of zinc activated cation channel” (Dignity Health, priority 2016, dated 2021).
Entries after “also recorded” stand apart in the source; their conditions may differ. Read-outs that look alike come from different tables or passages of the source.

Assays:
[1] = target: T1, ZACN (Homo sapiens, UniProt Q401N2); assay: Two-electrode voltage-clamp, ZACN expressed in Xenopus laevis oocytes: inhibition or modulation of spontaneous, zinc-activated and suramin-activated current; assay type: cell-based; set-up: host or cells: Xenopus laevis oocytes injected with cRNA (pGEMHE vector, T7 transcript); details: for mode of antagonism: IC50 at 500 μM vs 2 mM Zn2+
T1 sequence (Q401N2 26-412): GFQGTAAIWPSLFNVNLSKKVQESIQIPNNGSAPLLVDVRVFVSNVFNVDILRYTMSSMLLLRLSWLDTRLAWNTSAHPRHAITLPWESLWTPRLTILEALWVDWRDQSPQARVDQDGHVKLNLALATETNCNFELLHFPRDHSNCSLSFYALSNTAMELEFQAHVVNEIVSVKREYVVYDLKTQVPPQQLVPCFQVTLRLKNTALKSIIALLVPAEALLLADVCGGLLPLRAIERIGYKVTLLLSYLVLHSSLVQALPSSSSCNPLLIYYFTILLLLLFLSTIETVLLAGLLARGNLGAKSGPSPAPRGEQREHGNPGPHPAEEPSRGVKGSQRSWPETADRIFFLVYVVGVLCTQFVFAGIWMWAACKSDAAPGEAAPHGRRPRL
Description: Stage IV oocytes from Xenopus laevis were injected with Ing of ZACN human mRNA. Prior to recording, oocytes were incubated in the oocyte Ringer's Solution (OR2) with 10 μM D-tubocurarine to inhibit spontaneous channel opening. The oocytes were incubated at 14° C. for three to five days following mRNA injection before recording with two-electrode voltage-clamp. […] Current levels in response to drug applications were normalized to the response to the same concentration of zinc in the absence of the drug. Peak current inhibitions were fitted to the Hill equation to derive IC50 values.
(§1) The cDNA encoding wild type, human ZACN was purchased from OpenBiosystems, and cloned into the pGEMHE vector in the T7 orientation. For cRNA synthesis, cDNA templates were PCR amplified using primers that cover the M13 forward and reverse regions and high fidelity Phusion DNA polymerase (New England Biolab, Ipswich, Mass., USA). PCR products were then purified and served as templates for cRNA synthesis. cRNAs were transcribed by T7 RNA polymerase (Promega, Madison, Wis., USA) using standard in vitro transcription protocols. After digestion of the DNA template by RNase-free DNase I, cRNAs were purified and resuspended in diethyl pyrocarbonate (DEPC)-treated water. cRNA integrity was examined on a 1% agarose gel, and cRNA concentration was determined by optical density measurements at 260 nm using an Eppendorf Biophotometer.
(§2) Oocytes were harvested from female Xenopus laevis (Xenopus I, Ann Arbor, Mich., USA), using the protocol “Xenopus Care and Use” approved by the Institutional Animal Care and Use Committee of the St. Joseph's Hospital and Medical Center. Stage VI oocytes were selected and incubated at 16° C. before injection. Micropipettes for injection were pulled from borosilicate glass (Drummond Scientific, Broomall, Pa., USA) on a Sutter P87 horizontal puller, and the tips were cut with forceps to ≈40 μm in diameter. cRNAs encoding ZACN was drawn up into the micropipette and injected into oocytes with a Nanoject micro-injection system (Drummond Scientific) in a total volume of ˜60 nl and total cRNA of ˜20 ng for each oocyte.
(§3) ValveLink 16 computer-controlled perfusion system was used to switch solutions between the OR2 and a test solution. The perfusion chamber was grounded through an agar salt bridge to avoid alterations in junction potential between the Ag/AgCl grounding electrode and solution when solution/drug changes occurred. Oocytes were voltage-clamped at −70 mV to measure agonist-induced currents using an AxoClamp 900A amplifier (Axon Instruments, Foster City, Calif., USA). The current signal was low-pass filtered at 20 Hz with the built-in 4-pole low-pass Bessel filter and digitized at 100 Hz with a Digidata1440a and pClamp 10 software (Molecular Devices).
(§4) For each oocyte, concentration-inhibition curves for drug-induced inhibition of zinc-activated current responses or concentration response curves for agonist-induced current of the ZACN were fit to the Hill equation using least squares methods (Prism 6.0, GraphPad Software, Inc., San Diego, Calif., USA) to derive IC50 or EC50 values (the concentration required for inducing a half maximal current), Hill coefficients (the slope factor), and maximum current levels in absolute terms. Current levels in each oocyte were normalized to the maximum current in the absence of the inhibitor, allowing normalized data to be averaged across multiple oocytes and to be fit again to the Hill equation. All data are presented as mean±SEM (standard error).

[2] = target: T1, ZACN; assay: Two-electrode voltage-clamp, ZACN expressed in Xenopus laevis oocytes: agonist-induced current; assay type: cell-based; set-up: host or cells: Xenopus laevis oocytes injected with cRNA (pGEMHE vector, T7 transcript)
From the text: as §1, §2
as §3, with “Two to 5 days after injection, oocytes expressing ZACN were placed in a home-made, small volume chamber and a 16-channel manifold, continuously perfused with oocyte Ringer's solution (OR2), which consisted of (in mM) 92.5 NaCl, 2.5 KCl, 1 CaCl2, 1 MgCl2 and 5 HEPES, pH 7.5. ValveLink” for “ValveLink”
as §4

## Nc1ncnc2c1ncn2[C@@H]1O[C@H](COP(=O)(O)OP(=O)(O)OP(=O)(O)O)[C@@H](O)[C@H]1O [ATP]
[1]
  antagonist activity on human ZACN: inhibitor
  effect on spontaneous current / spontaneous opening: inhibits
  effect on suramin-activated current: positive allosteric modulator; also recorded: potentiates
  effect on zinc-activated current: antagonist; also recorded: inhibits

## COc1cc(-c2ccc(/N=N/c3ccc4c(S(=O)(=O)O)cc(S(=O)(=O)O)c(N)c4c3O)c(OC)c2)ccc1/N=N/c1ccc2c(S(=O)(=O)O)cc(S(=O)(=O)O)c(N)c2c1O [Chicago sky blue]
[2]
  agonist activity on human ZACN (words): activate the human ZACN

## Cc1cc(-c2ccc(/N=N/c3ccc4c(S(=O)(=O)O)cc(S(=O)(=O)O)c(N)c4c3O)c(C)c2)ccc1/N=N/c1ccc2c(S(=O)(=O)O)cc(S(=O)(=O)O)c(N)c2c1O [Evans blue]
[2]
  agonist activity on human ZACN (words): agonists; also recorded: efficacious agonist

## O=C(Nc1cccc(C(=O)Nc2ccc(S(=O)(=O)O)c3cc(S(=O)(=O)O)cc(S(=O)(=O)O)c23)c1)Nc1cccc(C(=O)Nc2ccc(S(=O)(=O)O)c3cc(S(=O)(=O)O)cc(S(=O)(=O)O)c23)c1 [NF-023]
[2]
  agonist activity on human ZACN (words): agonist

## O=C(Nc1cc(C(=O)Nc2ccc(S(=O)(=O)O)cc2)cc(C(=O)Nc2ccc(S(=O)(=O)O)cc2)c1)Nc1cc(C(=O)Nc2ccc(S(=O)(=O)O)cc2)cc(C(=O)Nc2ccc(S(=O)(=O)O)cc2)c1 [NF-110]
[2]
  agonist activity on human ZACN (words): agonist

## O=C(Nc1cccc(C(=O)Nc2cc(C(=O)Nc3ccc(S(=O)(=O)O)c4cc(S(=O)(=O)O)cc(S(=O)(=O)O)c34)ccc2F)c1)Nc1cccc(C(=O)Nc2cc(C(=O)Nc3ccc(S(=O)(=O)O)c4cc(S(=O)(=O)O)cc(S(=O)(=O)O)c34)ccc2F)c1 [NF-157]
[2]
  agonist activity on human ZACN (words): efficacious agonist
[2]; listed as NF157
  agonist activity on human ZACN (words): agonists

## O=C(Nc1ccc(C(=O)Nc2ccc(C(=O)Nc3ccc(S(=O)(=O)O)c4cc(S(=O)(=O)O)cc(S(=O)(=O)O)c34)cc2)cc1)Nc1ccc(C(=O)Nc2ccc(C(=O)Nc3ccc(S(=O)(=O)O)c4cc(S(=O)(=O)O)cc(S(=O)(=O)O)c34)cc2)cc1 [NF-279]
[2]
  agonist activity on human ZACN (words): agonists; also recorded: efficacious agonist

## O=C(Nc1cc(C(=O)Nc2ccc(S(=O)(=O)O)cc2S(=O)(=O)O)cc(C(=O)Nc2ccc(S(=O)(=O)O)cc2S(=O)(=O)O)c1)Nc1cc(C(=O)Nc2ccc(S(=O)(=O)O)cc2S(=O)(=O)O)cc(C(=O)Nc2ccc(S(=O)(=O)O)cc2S(=O)(=O)O)c1 [NF-449]
[2]
  agonist activity on human ZACN (words): agonist
  concentration at which the small high sensitivity component is saturated: 1 µM

## Cc1cc(-c2ccc(/N=N/c3c(S(=O)(=O)O)cc4cc(S(=O)(=O)O)cc(N)c4c3O)c(C)c2)ccc1/N=N/c1c(S(=O)(=O)O)cc2cc(S(=O)(=O)O)cc(N)c2c1O [Trypan blue]
[2]
  agonist activity on human ZACN (words): agonists; also recorded: efficacious agonist

## O=S1(=O)OC(c2cc(Br)c(O)c(Br)c2)(c2cc(Br)c(O)c(Br)c2)c2ccccc21 [bromophenol blue]
[2]
  agonist activity on human ZACN (words): activate the human ZACN

## Cc1c(C2(c3cc(C(C)C)c(O)c(Br)c3C)OS(=O)(=O)c3ccccc32)cc(C(C)C)c(O)c1Br [bromothymol blue]
[2]
  agonist activity on human ZACN (words): activate the human ZACN

## CNCCCN1c2ccccc2CCc2ccccc21 [desipramine]
[1]
  IC50s relative to clinical concentrations: clinically relevant concentrations
  antagonist activity on human ZACN: acted as antagonists
  relative potency / IC50 for the Zn2+-induced current among seven tested antidepressants: lower IC50 values
  mode of antagonism: non-competitive
[1]; listed as desipranine
  relative potency / IC50 for the Zn2+-induced current among seven tested antidepressants: most potent antagonists

## CN(C)CCC=C1c2ccccc2COc2ccccc21 [doxepin]
[1]
  antagonist activity on human ZACN: acted as antagonists
  mode of antagonism: non-competitive

## CNCCC(Oc1ccc(C(F)(F)F)cc1)c1ccccc1 (centres unmarked) [fluoxetine]
[1]
  antagonist activity on human ZACN: acted as antagonists
  mode of antagonism: non-competitive

## CN(C)c1ccc2nc3ccc(=[N+](C)C)cc-3sc2c1 [methylene blue]
[1]
  antagonist activity on human ZACN: antagonists
  high sensitivity component of antagonism, concentration range: nano-molar range
  low sensitivity form of antagonism, concentration range: micromolar range

## CN1CCN2c3ccccc3Cc3ccccc3C2C1 (centres unmarked) [mianserin]
[1]
  antagonist activity on human ZACN: acted as antagonists
  mode of antagonism: non-competitive

## Cc1cc2nc3ccc(N(C)C)cc3nc2cc1N.Cl [neutral red]
[1]
  antagonist activity on human ZACN: antagonists
  high sensitivity component of antagonism, concentration range: nano-molar range
  low sensitivity form of antagonism, concentration range: micromolar range

## CCOc1ccccc1OC(c1ccccc1)C1CNCCO1 (centres unmarked) [reboxetine]
[1]
  antagonist activity on human ZACN: acted as antagonists
  mode of antagonism: non-competitive

## Cc1ccc(C(=O)Nc2ccc(S(=O)(=O)O)c3cc(S(=O)(=O)O)cc(S(=O)(=O)O)c23)cc1NC(=O)c1cccc(NC(=O)Nc2cccc(C(=O)Nc3cc(C(=O)Nc4ccc(S(=O)(=O)O)c5cc(S(=O)(=O)O)cc(S(=O)(=O)O)c45)ccc3C)c2)c1 [suramin]
[2]
  agonist activity on human ZACN (words): agonists; also recorded: efficacious agonist

## Cc1cc2nc3ccc(N(C)C)cc3[s+]c2cc1N.[Cl-] [toluidine blue]
[1]
  antagonist activity on human ZACN: antagonists
  high sensitivity component of antagonism, concentration range: nano-molar range
  low sensitivity form of antagonism, concentration range: micromolar range

## CNCC[C@@H](Oc1ccccc1C)c1ccccc1 [tomoxetine]
[1]
  IC50s relative to clinical concentrations: clinically relevant concentrations
  antagonist activity on human ZACN: acted as antagonists
  relative potency / IC50 for the Zn2+-induced current among seven tested antidepressants: lower IC50 values
  mode of antagonism: non-competitive
[1]; listed as tomoxentine
  relative potency / IC50 for the Zn2+-induced current among seven tested antidepressants: most potent antagonists

## COc1ccc(C(CN(C)C)C2(O)CCCCC2)cc1 (centres unmarked) [venlafaxine]
[1]
  antagonist activity on human ZACN: acted as antagonists
  mode of antagonism: non-competitive

## brilliant blue
[2]
  agonist activity on human ZACN (words): activate the human ZACN
